Experimental data as given in US20110105422A1, “USE OF G-RICH OLIGONUCLEOTIDES FOR TREATING NEOPLASTIC DISEASES” (priority 2008, published 2011).
Entries after “also recorded” stand apart in the source; their conditions may differ. Like-named read-outs stand apart in the source and are kept apart here.

Legend:
KG-1 cells = assay: Sulphorhodamine B (SRB) assay, KG-1; type: cell-based; conditions: KG-1, 6 days
Procedure: (§1) Cells of the types described above were seeded in wells of a 96-well plate at a number optimised for each cell line.
(§2) A fixed concentration of AS1411 (either 1 μM or 2.5 μM) was added with varying concentrations of doxorubicin (ranging between 0.12 nM and 30667.0 nM) and cells were incubated for 6 days. A control was run with varying amounts of AS1411 without Doxorubicin. A second control series was run with the varying amounts of Doxorubicin but with no AS1411 present.
(§3) Cells were then washed, fixed to the 96-well plate with 16% TCA and exposed to the dye Sulphorhodamine B (SRB; available from Sigma-Aldrich, Dorset, UK; catalogue number S-1402). The optical density of the remaining cell mass after exposure to AS1411 was measured in a microplate spectrophotometer and IC50 determined.
(§4) The experiments were run in duplicate and the mean optical density calculated.
(§5) Combination index (CI) is determined using Calcusyn software (Biosoft, Cambridge UK) which employs the method of Chou, T.-C. and Talalay, P (See, Chou et al, Adv. Enz. Regul. 22: 27-55, 1984; and Chou, T.-C., Pharmacological Reviews 58:621-681, 2006.).

HL-60 cells = assay: Sulphorhodamine B (SRB) assay, HL-60; type: cell-based; conditions: HL-60, 6 days
Procedure: as §1, §2, §3, §4, §5

nucleolin = assay: Western blot analysis, nucleolin; type: cell-based; conditions: cells incubated with AS1411 for 4 days; whole cell lysate
Procedure: (§6) Cells were incubated with AS1411 for 4 days, after which cell lysates were analysed by non-reducing SDS-PAGE analysis using 4-12% NuPAGE Bis-Tris Gels (Invitrogen).
(§7) 10 μg of total protein (whole cell lysate) was loaded per well as assessed by the Lowry assay (Lowry reagent available from Sigma-Aldrich, catalogue number L3540) and detected using ECL Advance western blotting kit (GE Healthcare).
(§8) Anti-nucleolin and bax antibodies were obtained from Santa Cruz and the β-actin antibody from QED.

SK-N-AS (neuroblastoma) = assay: SRB assay, paediatric cancer cell line SK-N-AS; type: cell-based; conditions: 6-day SRB, average of at least two experiments
Procedure: (§9) Cells were typically seeded in wells of a 96-well plate as follows for each cell line:
(§10) AS1411 (G rich oligonucleotide of sequence ID No. 1) was added at a concentration selected from 0, 0.1, 1, 5 or 20 µM and cells were incubated for 6 days
(§11) Cells were then washed, fixed to the 96-well plate and exposed to the dye Sulphorhodamine B (SRB; available from Sigma-Aldrich, Dorset, UK; catalogue number S-1402. The optical density of the remaining cell mass after exposure to AS1411 was measured in a microplate spectrophotometer and IC50 determined. For the time course experiments, AS1411 was washed off cells at the stated time-point, and then fresh medium applied to the cells which were left to grow for the full 6 days of the assay.
as §4

MV411 cells = assay: Sulphorhodamine B (SRB) assay, MV411; type: cell-based; conditions: MV411, 6 days
Procedure: as §1, §2, §3, §4, §5

Namalwa cells = assay: Sulphorhodamine B (SRB) assay, Namalwa; type: cell-based, human
Procedure: as §1, §2, §3, §4, §5

Raji cells = assay: Sulphorhodamine B (SRB) assay, Raji; type: cell-based, human
Procedure: as §1, §2, §3, §4, §5

Daudi cells = assay: Sulphorhodamine B (SRB) assay, Daudi; type: cell-based, human
Procedure: as §1, §2, §3, §4, §5

Jurkat cells = assay: Sulphorhodamine B (SRB) assay, Jurkat; type: cell-based; conditions: 6 days
Procedure: as §1, §2, §3, §4, §5

A204 (rhabdomyosarcoma) = assay: SRB assay, paediatric cancer cell line A204; type: cell-based; conditions: 6-day SRB, average of at least two experiments
Procedure: as §9, §10, §11, §4

MV4-11 (AML) cells = assay: SRB assay, paediatric cancer cell line MV4-11; type: cell-based; conditions: MV4-11, acute myelogenous leukaemia (AML); 6-day SRB; average of at least two experiments
Procedure: as §9, §10, §11, §4

SUP-B15 (ALL) cells = assay: SRB assay, paediatric cancer cell line SUP-B15; type: cell-based; conditions: SUP-B15, acute lymphoblastic leukaemia (ALL); 6-day SRB; average of at least two experiments
Procedure: as §9, §10, §11, §4

R-1059-D (osteosarcoma) = assay: SRB assay, paediatric cancer cell line R-1059-D; type: cell-based; conditions: 6-day SRB, average of at least two experiments
Procedure: as §9, §10, §11, §4

K562 cells = assay: Sulphorhodamine B (SRB) assay, K562; type: cell-based; conditions: K562, 6 days
Procedure: as §1, §2, §3, §4, §5

Bax protein = assay: Western blot analysis, Bax; type: cell-based; conditions: cells incubated with AS1411 for 4 days; whole cell lysate; both cell lines; normalised to β-actin
Procedure: as §6, §7, §8

[1] = 6 days, SRB, AS1411 without doxorubicin, read-out: Mean IC50
[2] = Homo sapiens, 144 h, IC50 as doxorubicin concentration, alone or with fixed AS1411
[3] = Homo sapiens, 144 h, 6 days, SRB, IC50 as doxorubicin concentration, alone or with fixed AS1411, read-out: Mean IC50
[4] = Homo sapiens, doxorubicin alone, read-out: Doxorubicin IC50, Alone
[5] = Homo sapiens, in combination with 2.5 μM AS1411, read-out: Doxorubicin IC50, In combination with 2.5 μM AS1411
[6] = doxorubicin IC50 alone vs in combination with 2.5 μM AS1411

Compound: AS1411: G-rich oligonucleotide, SEQ ID No: 1, 5′-GGTGGTGGTGGTTGTGGTGGTGGTGG-3′
- IC50 (KG-1 cells; AS1411 without doxorubicin): 2320 nM
- IC50 (HL-60 cells; AS1411 without doxorubicin): 2620 nM
- total cell lysate nucleolin levels (Western blot) (nucleolin): no effect
- IC50 (SK-N-AS (neuroblastoma)): 3.2 nM
- IC50 (MV411 cells; AS1411 without doxorubicin): 2360 nM
- IC50 (Namalwa cells; Namalwa, 6 days, SRB, AS1411 without doxorubicin, read-out: Mean IC50): 3200 nM
- IC50 (Raji cells; [1]): 4940 nM
- IC50 (Daudi cells; [1]): 9350 nM
- IC50 (Jurkat cells; n=1, AS1411 without doxorubicin): 1130 nM
- IC50 (A204 (rhabdomyosarcoma)): 2.6 nM
- IC50 (MV4-11 (AML) cells): 2.1 nM
- IC50 (SUP-B15 (ALL) cells): 2.3 nM
- IC50 (R-1059-D (osteosarcoma)): 4.7 nM
- IC50 (K562 cells; AS1411 without doxorubicin): 7030 nM
- Bax protein level (Western blot) (Bax protein): increased levels; also recorded: Up-regulation

Compound: COc1cccc2c1C(=O)c1c(O)c3c(c(O)c1C2=O)C[C@@](O)(C(=O)CO)C[C@@H]3O[C@@H]1CC(N)[C@@H](O)C(C)O1 (stereo partly drawn) [Doxorubicin, (8S,10S)-10-(4-amino-5-hydroxy-6-methyl-tetrahydro-2H-pyran-2-yloxy)-6,8,11-trihydroxy-8-(2-hydroxyacetyl)-1-methoxy-7,8,9,10-tetrahydrotetracene-5,12-dione]
- IC50 (KG-1 cells; [2]): 4860 nM
- IC50 (HL-60 cells; [2]): 639 nM
- IC50 (MV411 cells; Homo sapiens, MV4-11, 144 h, IC50 as doxorubicin concentration, alone or with fixed AS1411): 75.9 nM
- IC50 (Namalwa cells; Homo sapiens, 144 h, Namalwa, 6 days, SRB, IC50 as doxorubicin concentration, alone or with fixed AS1411, read-out: Mean IC50): 69.7 nM
- IC50 (Namalwa cells; Homo sapiens, NAMALWA, doxorubicin alone, read-out: Doxorubicin IC50, Alone): 69.7 nM
- IC50 (Namalwa cells; Homo sapiens, NAMALWA, in combination with 2.5 μM AS1411, read-out: Doxorubicin IC50, In combination with 2.5 μM AS1411): 17.2 nM
- Fold increase in potency (Namalwa cells; NAMALWA, doxorubicin IC50 alone vs in combination with 2.5 μM AS1411): 4.1 fold
- IC50 (Raji cells; [3]): 746 nM
- IC50 (Raji cells; [4]): 746 nM
- IC50 (Raji cells; [5]): 327 nM
- Fold increase in potency (Raji cells; [6]): 2.3 fold
- IC50 (Daudi cells; [3]): 220 nM
- IC50 (Daudi cells; [4]): 220 nM
- IC50 (Daudi cells; [5]): 57.2 nM
- Fold increase in potency (Daudi cells; [6]): 3.8 fold
- IC50 (Jurkat cells; Homo sapiens, 144 h, n=1, IC50 as doxorubicin concentration, alone or with fixed AS1411): 426 nM
- IC50 (K562 cells; [2]): 1260 nM
